Key:
Assay type in all cases: in vivo
[1] = tested on: lambsquarters (Chenopodium album); assay: Postemergence herbicidal activity, lambsquarters; conditions: foliar spray, visual after 2 weeks, 0 no injury, 100 complete kill
Protocol: (§1) Seeds of the desired test plant species were planted in Grace-Sierra MetroMix® 306 planting mixture, which typically has a pH of 6.0 to 6.8 and an organic matter content of about 30 percent, in plastic pots with a surface area of 64 square centimeters. When required to ensure good germination and healthy plants, a fungicide treatment and/or other chemical or physical treatment was applied. The plants were grown for 7-21 days in a greenhouse with an approximately 15 hr photoperiod which was maintained at about 23-29° C. during the day and 22-28° C. during the night. Nutrients and water were added on a regular basis and supplemental lighting was provided with overhead metal halide 1000 Watt lamps as necessary. The plants were employed for testing when they reached the first or second true leaf stage. A weighed amount of each test compound, determined by the highest rate to be tested, was placed in a 20 mL glass vial and was dissolved in 4 mL of a 97:3 v/v (volume/volume) mixture of acetone and dimethyl sulfoxide to obtain concentrated stock solutions. […] The concentrated stock solutions obtained were diluted with an aqueous mixture containing acetone, water, iso-propyl alcohol, dimethyl sulfoxide, Atplus 411F crop oil concentrate, and Triton X-155 surfactant (methylenebisdiamyl phenoxy polyethoxy ethanol) in a 48.5:39:10:1.5:1.0:0.02 v/v ratio to obtain spray solutions of known concentration. The solutions containing the highest concentration to be tested were prepared by diluting 2 mL aliquots of the stock solution with 13 mL of the mixture and lower concentrations were prepared by dilution of appropriate smaller portions of the stock solution. Approximately 1.5 mL aliquots of each solution of known concentration were sprayed evenly onto each of the test plant pots using a DeVilbiss atomizer driven by compressed air pressure of 2 to 4 psi (140 to 280 kilopascals) to obtain thorough coverage of each plant. Control plants were sprayed in the same manner with the aqueous mixture. In this test an application rate of 1 ppm results in the application of approximately 1 g/ha. The treated plants and control plants were placed in a greenhouse as described above and watered by sub-irrigation to prevent wash-off of the test compounds. After 2 weeks the condition of the test plants as compared with that of the untreated plants was determined visually and scored on a scale of 0 to 100 percent where 0 corresponds to no injury and 100 corresponds to complete kill.

[2] = tested on: cocklebur (Xanthium strumarium); assay: Postemergence herbicidal activity, cocklebur; conditions: foliar spray, visual after 2 weeks, 0 no injury, 100 complete kill
Protocol: as §1

[3] = tested on: chickweed (Stellaria media); assay: Postemergence herbicidal activity, chickweed; conditions: foliar spray, visual after 2 weeks, 0 no injury, 100 complete kill
Protocol: as §1

[4] = tested on: morningglory (Ipomoea hederacea); assay: Postemergence herbicidal activity, morningglory; conditions: foliar spray, visual after 2 weeks, 0 no injury, 100 complete kill
Protocol: as §1

[5] = tested on: velvetleaf (Abutilion theophrasti); assay: Preemergence herbicidal activity, velvetleaf; conditions: soil spray, visual after 3 weeks, 0 no injury, 100 complete kill or no germination
Protocol: (§2) The soil matrix was contained in plastic pots with a surface area of 161 square centimeters. When required to ensure good germination and healthy plants, a fungicide treatment and/or other chemical or physical treatment was applied. A weighed amount, determined by the highest rate to be tested, of each test compound was placed in a 20 mL glass vial and was dissolved in 8 mL of a 97:3 v/v (volume/volume) mixture of acetone and dimethyl sulfoxide to obtain concentrated stock solutions. […] The stock solutions obtained were diluted with a 99.9:0.1 mixture of water and Tween® 155 surfactant (ethoxylated sorbitan fatty acid ester) to obtain application solutions of known concentration. The solutions containing the highest concentration to be tested were prepared by diluting 4 mL aliquots of the stock solution with 8.5 mL of the mixture and lower concentrations were prepared by dilution of appropriate smaller portions of the stock solution. A 2.5 mL aliquot of each solution of known concentration was sprayed evenly onto the soil of each seeded pot using a Cornwall 5.0 mL glass syringe fitted with a TeeJet TN-3 hollow cone nozzle to obtain thorough coverage of the soil in each pot. Control pots were sprayed in the same manner with the aqueous mixture. A highest application rate of 4.48 kg/ha is achieved when 50 mg of test compound is employed. The treated pots and control pots were placed in a greenhouse with an approximately 15 hr photoperiod which was maintained at about 23-29° C. during the day and 22-28° C. during the night. Nutrients and water were added on a regular basis and supplemental lighting was provided with overhead metal halide 1000 Watt lamps as necessary. The water was added by top-irrigation. After 3 weeks the condition of the test plants that germinated and grew as compared with that of the untreated plants that germinated and grew was determined visually and scored on a scale of 0 to 100 percent where 0 corresponds to no injury and 100 corresponds to complete kill or no germination.

[6] = tested on: wild buckwheat (Polygonum convolvulus); assay: Postemergence herbicidal activity, wild buckwheat; conditions: foliar spray, visual after 2 weeks, 0 no injury, 100 complete kill
Protocol: as §1

[7] = tested on: pigweed (Amaranthus retroflexus); assay: Postemergence herbicidal activity, pigweed; conditions: foliar spray, visual after 2 weeks, 0 no injury, 100 complete kill
Protocol: as §1

[8] = tested on: barnyardgrass (Echinochloa crus-galli); assay: Preemergence herbicidal activity, barnyardgrass; conditions: soil spray, visual after 3 weeks, 0 no injury, 100 complete kill or no germination
Protocol: as §2

[9] = tested on: giant foxtail (Setaria faberi); assay: Postemergence herbicidal activity, giant foxtail; conditions: foliar spray, visual after 2 weeks, 0 no injury, 100 complete kill
Protocol: as §1

[10] = tested on: pigweed (Amaranthus retroflexus); assay: Preemergence herbicidal activity, pigweed; conditions: soil spray, visual after 3 weeks, 0 no injury, 100 complete kill or no germination
Protocol: as §2

[11] = tested on: blackgrass (Alopecurus myosuroides); assay: Preemergence herbicidal activity, blackgrass; conditions: soil spray, visual after 3 weeks, 0 no injury, 100 complete kill or no germination
Protocol: as §2

[12] = tested on: Rox orange sorghum (Sorghum bicolor); assay: Postemergence herbicidal activity, Rox orange sorghum; conditions: foliar spray, visual after 2 weeks, 0 no injury, 100 complete kill
Protocol: as §1

[13] = tested on: wild oats (Avena fatua); assay: Postemergence herbicidal activity, wild oats; conditions: foliar spray, visual after 2 weeks, 0 no injury, 100 complete kill
Protocol: as §1

[14] = tested on: viola (Viola tricolor); assay: Postemergence herbicidal activity, viola; conditions: foliar spray, visual after 2 weeks, 0 no injury, 100 complete kill
Protocol: as §1

[15] = tested on: morningglory (Ipomoea hederacea); assay: Preemergence herbicidal activity, morningglory; conditions: soil spray, visual after 3 weeks, 0 no injury, 100 complete kill or no germination
Protocol: as §2

[16] = tested on: velvetleaf (Abutilion theophrasti); assay: Postemergence herbicidal activity, velvetleaf; conditions: foliar spray, visual after 2 weeks, 0 no injury, 100 complete kill
Protocol: as §1

[17] = tested on: Rox orange sorghum (Sorghum bicolor); assay: Preemergence herbicidal activity, Rox orange sorghum; conditions: soil spray, visual after 3 weeks, 0 no injury, 100 complete kill or no germination
Protocol: as §2

[18] = tested on: wild poinsettia (Euphorbia heterophylla); assay: Preemergence herbicidal activity, wild poinsettia; conditions: soil spray, visual after 3 weeks, 0 no injury, 100 complete kill or no germination
Protocol: as §2

[19] = tested on: lambsquarters (Chenopodium album); assay: Preemergence herbicidal activity, lambsquarters; conditions: soil spray, visual after 3 weeks, 0 no injury, 100 complete kill or no germination
Protocol: as §2

[20] = tested on: cocklebur (Xanthium strumarium); assay: Preemergence herbicidal activity, cocklebur; conditions: soil spray, visual after 3 weeks, 0 no injury, 100 complete kill or no germination
Protocol: as §2

[21] = tested on: giant foxtail (Setaria faberi); assay: Preemergence herbicidal activity, giant foxtail; conditions: soil spray, visual after 3 weeks, 0 no injury, 100 complete kill or no germination
Protocol: as §2

[22] = tested on: blackgrass (Alopecurus myosuroides); assay: Postemergence herbicidal activity, blackgrass; conditions: foliar spray, visual after 2 weeks, 0 no injury, 100 complete kill
Protocol: as §1

[23] = tested on: crabgrass (Digitaria sanguinalis); assay: Preemergence herbicidal activity, crabgrass; conditions: soil spray, visual after 3 weeks, 0 no injury, 100 complete kill or no germination
Protocol: as §2

[24] = tested on: wild oats (Avena fatua); assay: Preemergence herbicidal activity, wild oats; conditions: soil spray, visual after 3 weeks, 0 no injury, 100 complete kill or no germination
Protocol: as §2

COc1csc(C)c1S(=O)(=O)Nc1nc2c(OC)cnc(OC)n2n1 [Compound 23]
CHEAL postemergence injury score 0-100 ([1]; 15.6 ppm): 80%
XANST postemergence injury score 0-100 ([2]; 15.6 ppm): 90%
STEME postemergence injury score 0-100 ([3]; 15.6 ppm): 80%
IPOHE postemergence injury score 0-100 ([4]; 15.6 ppm): 40%
ABUTH preemergence injury score 0-100 ([5]; 4.4 g/Ha): 90%
POLCO postemergence injury score 0-100 ([6]; 15.6 ppm): 75%
AMARE postemergence injury score 0-100 ([7]; 15.6 ppm): 90%
ECHCG preemergence injury score 0-100 ([8]; 4.4 g/Ha): 80%
SETFA postemergence injury score 0-100 ([9]; 15.6 ppm): 90%
AMARE preemergence injury score 0-100 ([10]; 4.4 g/Ha): 100%
ALOMY preemergence injury score 0-100 ([11]; 4.4 g/Ha): 98%
SORBI postemergence injury score 0-100 ([12]; 15.6 ppm): 90%
AVEFA postemergence injury score 0-100 ([13]; 15.6 ppm): 70%
VIOTR postemergence injury score 0-100 ([14]; 15.6 ppm): 70%
IPOHE preemergence injury score 0-100 ([15]; 4.4 g/Ha): 80%
ABUTH postemergence injury score 0-100 ([16]; 15.6 ppm): 90%
SORBI preemergence injury score 0-100 ([17]; 4.4 g/Ha): 100%
EPHHL preemergence injury score 0-100 ([18]; 4.4 g/Ha): 90%
CHEAL preemergence injury score 0-100 ([19]; 4.4 g/Ha): 90%
XANST preemergence injury score 0-100 ([20]; 4.4 g/Ha): 70%
SETFA preemergence injury score 0-100 ([21]; 4.4 g/Ha): 98%
ALOMY postemergence injury score 0-100 ([22]; 15.6 ppm): 70%
DIGSA preemergence injury score 0-100 ([23]; 4.4 g/Ha): 100%
AVEFA preemergence injury score 0-100 ([24]; 4.4 g/Ha): 90%

COc1cscc1S(=O)(=O)Nc1nc2c(C)cnc(OC)n2n1 [Compound 17]
CHEAL postemergence injury score 0-100 ([1]; 31.3 ppm): 100%
XANST postemergence injury score 0-100 ([2]; 31.3 ppm): 95%
STEME postemergence injury score 0-100 ([3]; 31.3 ppm): 90%
IPOHE postemergence injury score 0-100 ([4]; 31.3 ppm): 70%
ABUTH preemergence injury score 0-100 ([5]; 35 g/Ha): 30%
POLCO postemergence injury score 0-100 ([6]; 31.3 ppm): 60%
AMARE postemergence injury score 0-100 ([7]; 31.3 ppm): 95%
ECHCG preemergence injury score 0-100 ([8]; 35 g/Ha): 30%
SETFA postemergence injury score 0-100 ([9]; 31.3 ppm): 90%
AMARE preemergence injury score 0-100 ([10]; 35 g/Ha): 70%
ALOMY preemergence injury score 0-100 ([11]; 35 g/Ha): 100%
SORBI postemergence injury score 0-100 ([12]; 31.3 ppm): 90%
AVEFA postemergence injury score 0-100 ([13]; 31.3 ppm): 85%
VIOTR postemergence injury score 0-100 ([14]; 31.3 ppm): 70%
IPOHE preemergence injury score 0-100 ([15]; 35 g/Ha): 0%
ABUTH postemergence injury score 0-100 ([16]; 31.3 ppm): 85%
SORBI preemergence injury score 0-100 ([17]; 35 g/Ha): 60%
EPHHL preemergence injury score 0-100 ([18]; 35 g/Ha): 60%
CHEAL preemergence injury score 0-100 ([19]; 35 g/Ha): 100%
XANST preemergence injury score 0-100 ([20]; 35 g/Ha): 70%
SETFA preemergence injury score 0-100 ([21]; 35 g/Ha): 60%
ALOMY postemergence injury score 0-100 ([22]; 31.3 ppm): 70%
DIGSA preemergence injury score 0-100 ([23]; 35 g/Ha): 30%
AVEFA preemergence injury score 0-100 ([24]; 35 g/Ha): 30%

COc1csc(C)c1S(=O)(=O)Nc1nc2c(Cl)cnc(OC)n2n1 [Compound 22]
CHEAL postemergence injury score 0-100 ([1]; 31.3 ppm): 90%
XANST postemergence injury score 0-100 ([2]; 31.3 ppm): 90%
STEME postemergence injury score 0-100 ([3]; 31.3 ppm): 80%
IPOHE postemergence injury score 0-100 ([4]; 31.3 ppm): 90%
ABUTH preemergence injury score 0-100 ([5]; 35 g/Ha): 100%
POLCO postemergence injury score 0-100 ([6]; 31.3 ppm): 90%
AMARE postemergence injury score 0-100 ([7]; 31.3 ppm): 100%
ECHCG preemergence injury score 0-100 ([8]; 35 g/Ha): 100%
SETFA postemergence injury score 0-100 ([9]; 31.3 ppm): 80%
AMARE preemergence injury score 0-100 ([10]; 35 g/Ha): 100%
ALOMY preemergence injury score 0-100 ([11]; 35 g/Ha): 70%
SORBI postemergence injury score 0-100 ([12]; 31.3 ppm): 95%
AVEFA postemergence injury score 0-100 ([13]; 31.3 ppm): 50%
VIOTR postemergence injury score 0-100 ([14]; 31.3 ppm): 80%
IPOHE preemergence injury score 0-100 ([15]; 35 g/Ha): 98%
ABUTH postemergence injury score 0-100 ([16]; 31.3 ppm): 70%
SORBI preemergence injury score 0-100 ([17]; 35 g/Ha): 100%
EPHHL preemergence injury score 0-100 ([18]; 35 g/Ha): 80%
CHEAL preemergence injury score 0-100 ([19]; 35 g/Ha): 98%
XANST preemergence injury score 0-100 ([20]; 35 g/Ha): 80%
SETFA preemergence injury score 0-100 ([21]; 35 g/Ha): 100%
ALOMY postemergence injury score 0-100 ([22]; 31.3 ppm): 60%
DIGSA preemergence injury score 0-100 ([23]; 35 g/Ha): 98%
AVEFA preemergence injury score 0-100 ([24]; 35 g/Ha): 70%

From US6645918B1, “N-([1,2,4]triazoloazinyl)thiophenesulfonamide compounds and their use as herbicides” (Dow AgroSciences LLC, priority 2000, dated 2003)
